The results in this text go back to patent US8022225B2, “Triazole derivative” (Taisho Pharmaceutical Co., Ltd, priority 2004, dated 2011).

In assay [1] the target is T1, human Edg-1(S1P1) (Homo sapiens, UniProt P21453).
T1 construct: expressed in transfected cells; host or cells: HEK-293
Nature of the assay: Membrane system binding test: inhibition of [33P]-S1P binding to the membrane fraction of Edg-1(S1P1) gene transferred HEK-293 cells. Particulars: [33P]-S1P 0.1 nM. A digest of the protocol:
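Membranes from HEK-293 cells transfected with Edg-1(S1P1) incubated 1 h at 30 °C with 0.1 nM [^33P]-S1P and compound at 10^−5 M (0.1% DMSO), pH 7.4 buffer with fatty acid-free BSA. Filter-bound radioactivity counted; inhibition rate calculated against no-compound binding, with untransfected-cell background subtracted.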

In assay [2] the target is T1, human Edg-1(S1P1). Nature of the assay: Cell system binding test: inhibition of [3H]-S1P binding to Edg-1(S1P1) gene transferred HEK-293 cells. The note with it: [3H]-S1P 10 nM.
The mark [3] stands for this setting: 10 μM compound, membrane fraction of Edg-1(S1P1) gene transferred HEK-293 cells, read-out: Membrane system binding test % inhibition (10 μM).
Setting [4] is: 10 μM compound, read-out: Cell system binding test % inhibition (10 μM).
Where [5] appears, read: test compound 10^-5 M, 1 hour at 30° C., HEK-293 membrane fraction, read-out: Edg-1(S1P1) binding inhibition rate (membrane system binding test).
The mark [6] stands for this setting: test compound 10^-5 M, 1 hour, read-out: Edg-1(S1P1) binding inhibition rate (cell system binding test).

T1 sequence (P21453 whole entry): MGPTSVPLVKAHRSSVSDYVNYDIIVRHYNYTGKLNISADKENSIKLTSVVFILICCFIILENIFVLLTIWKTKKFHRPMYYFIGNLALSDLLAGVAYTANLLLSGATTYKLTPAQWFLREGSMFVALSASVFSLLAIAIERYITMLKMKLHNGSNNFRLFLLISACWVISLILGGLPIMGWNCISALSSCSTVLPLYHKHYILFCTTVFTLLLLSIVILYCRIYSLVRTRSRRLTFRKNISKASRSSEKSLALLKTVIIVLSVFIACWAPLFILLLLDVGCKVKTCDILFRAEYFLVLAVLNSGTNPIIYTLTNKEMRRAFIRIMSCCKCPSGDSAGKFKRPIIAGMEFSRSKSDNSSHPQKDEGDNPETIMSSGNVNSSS

The inhibition is the change of the read-out against control, counted positive when it falls. Regarding `CCn1c(SCCc2ccc(N(C)C)cc2)nnc1[C@@H](C)NS(=O)(=O)c1ccc(Cl)cc1` [Compound 77], the results for the inhibition at 10 µM at human Edg-1(S1P1) [1] (setting [3]) and on human Edg-1(S1P1) [2] (setting [4]) were 96.4% and 89.4%, respectively.

Turning to `CCn1c(OC)nnc1[C@@H](C)NS(=O)(=O)c1cc(F)c(Br)cc1F` [Compound 449], the “Membrane system binding test % inhibition (10 μM)” value at human Edg-1(S1P1) [1] (10 μM compound, membrane fraction of Edg-1(S1P1) gene transferred HEK-293 cells) came to 65.9%. The “Cell system binding test % inhibition (10 μM)” value at human Edg-1(S1P1) [2] (10 μM compound) is recorded as 91.6%.

As to `CCn1c(OC)nnc1[C@@H](COC)NS(=O)(=O)c1ccc(Cl)cc1` [Compound 459], the inhibition at 10 µM was found to be 68.5% at human Edg-1(S1P1) [1] (setting [5]) and 89.9% at human Edg-1(S1P1) [2] (setting [6]).

Take `CCCc1ccc(S(=O)(=O)N[C@H](C)c2nnc(OC)n2CC)cc1` [Compound 262]: the inhibition at 10 µM on human Edg-1(S1P1) [1] (setting [3]) was 68.8%; on human Edg-1(S1P1) [2] (setting [4]) it was 96.5%.

For `CCCn1c(OC)nnc1[C@@H](C)NS(=O)(=O)c1ccc(Cl)cc1` [Compound 541], the inhibition at 10 µM on human Edg-1(S1P1) [1] (setting [5]) worked out at 75.8%; on human Edg-1(S1P1) [2] (setting [6]) it was 97.1%.

In the case of `CCn1c(SCCc2ccncc2)nnc1[C@@H](C)NS(=O)(=O)c1ccc(Cl)cc1` [Compound 69], the inhibition at 10 µM was 92.7% at human Edg-1(S1P1) [1] (setting [3]) and 89.5% at human Edg-1(S1P1) [2] (setting [4]).

As for `CCn1c(SCc2cccc(C)c2)nnc1[C@@H](C)NS(=O)(=O)c1ccc(Cl)cc1` [Compound 22], the inhibition at 10 µM on human Edg-1(S1P1) [1] (setting [3]) is 96.9%; at human Edg-1(S1P1) [2] (setting [4]), 82.1%.

As for `CCn1c(SCc2ccc([N+](=O)[O-])cc2)nnc1[C@@H](C)NS(=O)(=O)c1ccc(Cl)cc1` [Compound 81], the figures for the inhibition at 10 µM on human Edg-1(S1P1) [1] (setting [3]) and at human Edg-1(S1P1) [2] (setting [4]) were 110% and 87.6%, respectively.

`CCn1c(OC(C)C)nnc1[C@@H](C)NS(=O)(=O)c1ccc(C)c(F)c1` [Compound 463]: the results for the inhibition at 10 µM on human Edg-1(S1P1) [1] (setting [5]) and at human Edg-1(S1P1) [2] (setting [6]) were 97.2% and 88.7%, respectively.

In the case of `CCOc1nnc([C@@H](C)NS(=O)(=O)c2cc3ccccc3s2)n1CC` [Compound 406], the figures for the inhibition at 10 µM on human Edg-1(S1P1) [1] (setting [3]) and on human Edg-1(S1P1) [2] (setting [4]) were 92.5% and 90.1%, respectively.

As for `CCn1c(SCCn2ccnc2)nnc1[C@@H](C)NS(=O)(=O)c1ccc(Cl)cc1` [Compound 84], the inhibition at 10 µM at human Edg-1(S1P1) [1] (setting [3]) is 100%; at human Edg-1(S1P1) [2] (setting [4]), 87.9%.

For `CCOc1nnc([C@@H](C)NS(=O)(=O)c2cc(F)cc(F)c2)n1CC` [Compound 433], the inhibition at 10 µM at human Edg-1(S1P1) [1] (setting [3]) is 70.2%; on human Edg-1(S1P1) [2] (setting [4]), 93.8%.

For the compound `CCCSc1nnc([C@@H](C)NS(=O)(=O)c2ccc(Cl)cc2)n1CC` [Compound 2], the inhibition at 10 µM was 101% on human Edg-1(S1P1) [1] (setting [3]) and 88.5% at human Edg-1(S1P1) [2] (setting [4]).

With `CCOc1nnc([C@@H](C)NS(=O)(=O)c2cccc(Cl)c2C)n1CC` [Compound 430], the inhibition at 10 µM amounted to 89.2% on human Edg-1(S1P1) [1] (setting [3]) and 97.9% on human Edg-1(S1P1) [2] (setting [4]).

For the compound `CCOc1nnc([C@@H](C)NS(=O)(=O)c2ccc(Br)cc2)n1CC` [Compound 409], the inhibition at 10 µM at human Edg-1(S1P1) [1] (setting [3]) amounted to 92.2%; at human Edg-1(S1P1) [2] (setting [4]), 88.1%.

Turning to `CCn1c(OCC(F)(F)F)nnc1[C@@H](C)NS(=O)(=O)c1cc(F)cc(F)c1` [Compound 501], the results for the inhibition at 10 µM at human Edg-1(S1P1) [1] (setting [5]) and at human Edg-1(S1P1) [2] (setting [6]) were 55.4% and 102%, respectively.

`CCn1c(SCc2ccc(NC(C)=O)cc2)nnc1[C@@H](C)NS(=O)(=O)c1ccc(Cl)cc1` [Compound 82]: the inhibition at 10 µM came to 90.4% at human Edg-1(S1P1) [1] (setting [3]) and 84.7% at human Edg-1(S1P1) [2] (setting [4]).

On to `CCOc1nnc([C@@H](C)NS(=O)(=O)c2cccc(C(F)(F)F)c2)n1CC` [Compound 414], for which the inhibition at 10 µM came to 81% on human Edg-1(S1P1) [1] (setting [3]) and 101% at human Edg-1(S1P1) [2] (setting [4]).

Take `CCn1c(SCCCc2ccccc2)nnc1[C@@H](C)NS(=O)(=O)c1ccc(Cl)cc1` [Compound 39]: the results for the inhibition at 10 µM on human Edg-1(S1P1) [1] (setting [3]) and on human Edg-1(S1P1) [2] (setting [4]) were 86.7% and 93.8%, respectively.

`CCn1c(OC(C)C)nnc1[C@@H](C)NS(=O)(=O)c1ccc(Br)c(C)c1` [Compound 457]: the inhibition at 10 µM on human Edg-1(S1P1) [1] (setting [5]) is 101%; on human Edg-1(S1P1) [2] (setting [6]), 85.4%.

Consider `CCn1c(OCC(F)(F)F)nnc1[C@@H](C)NS(=O)(=O)c1ccc(F)c(F)c1` [Compound 496], for which the inhibition at 10 µM is 75.7% at human Edg-1(S1P1) [1] (setting [5]) and 103% on human Edg-1(S1P1) [2] (setting [6]).
